Measured values from ChEMBL document CHEMBL1201862, “PubChem BioAssay data set” (2004).
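Dose response: 5 concentrations. Exposure: 48 h. Format: 96-well plates. Endpoint: linear interpolation; highest concentration if not reached. The concentration for 50% growth inhibition is given as GI50.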 Activity calls are given as the source filed them. Rule as the data show it: active = GI50 up to about 1.1 µM and inactive = higher.

What was measured:
Assay in all cases: DTP human tumour cell line panel, 48 h
[1] = system: ACHN
[2] = system: M14
[3] = system: UACC-62
[4] = system: KM12
[5] = system: SF-268
[6] = system: UO-31
[7] = system: HT-29
[8] = system: SNB-19
[9] = system: A549
[10] = system: HOP-62
[11] = system: SR
[12] = system: K562
[13] = system: OVCAR-3
[14] = system: HCT-116
[15] = system: HL-60
[16] = system: NCI-H226
[17] = system: SW-620
[18] = system: NCI-H23
[19] = system: SF-295
[20] = system: HOP-92

| Compound | GI50 [1] | GI50 [2] | GI50 [3] | GI50 [4] | GI50 [5] | GI50 [6] | GI50 [7] | GI50 [8] | GI50 [9] | GI50 [10] | GI50 [11] | GI50 [12] | GI50 [13] | GI50 [14] | GI50 [15] | GI50 [16] | GI50 [17] | GI50 [18] | GI50 [19] | GI50 [20] |
| --- | --- | --- | --- | --- | --- | --- | --- | --- | --- | --- | --- | --- | --- | --- | --- | --- | --- | --- | --- | --- |
| NC(=O)Cn1c(=O)[nH]c(=O)c2[nH]cnc21 | > 100 µM (inactive) | > 100 µM (inactive) | > 100 µM (inactive) | > 100 µM (inactive) | > 100 µM (inactive) | > 100 µM (inactive) | > 100 µM (inactive) | > 100 µM (inactive) | > 100 µM (inactive) | > 100 µM (inactive) | > 100 µM (inactive) | > 100 µM (inactive) | > 100 µM (inactive) | > 100 µM (inactive) | > 100 µM (inactive) | > 100 µM (inactive) | > 100 µM (inactive) | > 100 µM (inactive) | – | – |
| COc1nc(C#CCC(C)O)nc(OC)n1 (configuration not stated) | 17.1 µM (inactive) | 16.9 µM (inactive) | 15.1 µM (inactive) | 24.5 µM (inactive) | 21.3 µM (inactive) | 18.2 µM (inactive) | 31.3 µM (inactive) | > 100 µM (inactive) | 23.3 µM (inactive) | 4.89 µM (inactive) | 21.1 µM (inactive) | 38.2 µM (inactive) | 19.5 µM (inactive) | 14.9 µM (inactive) | 24.3 µM (inactive) | – | 23.1 µM (inactive) | 19.9 µM (inactive) | 30.6 µM (inactive) | – |
| NC(=O)CCC(NC(=O)c1c2ccccc2nc2ccccc12)C(=O)O (configuration not stated) | > 100 µM (inactive) | > 100 µM (inactive) | > 100 µM (inactive) | > 100 µM (inactive) | > 100 µM (inactive) | > 100 µM (inactive) | > 100 µM (inactive) | > 100 µM (inactive) | > 100 µM (inactive) | > 100 µM (inactive) | – | > 100 µM (inactive) | > 100 µM (inactive) | > 100 µM (inactive) | – | > 100 µM (inactive) | > 100 µM (inactive) | > 100 µM (inactive) | > 100 µM (inactive) | > 100 µM (inactive) |
| COCCCNc1nc(N)c(C#N)c(C#N)c1C#N | > 10 µM (inactive) | > 10 µM (inactive) | > 10 µM (inactive) | > 10 µM (inactive) | > 10 µM (inactive) | > 10 µM (inactive) | > 10 µM (inactive) | > 10 µM (inactive) | > 10 µM (inactive) | > 10 µM (inactive) | > 10 µM (inactive) | 2.72 µM (inactive) | > 10 µM (inactive) | > 10 µM (inactive) | 4.47 µM (inactive) | > 10 µM (inactive) | > 10 µM (inactive) | > 10 µM (inactive) | > 10 µM (inactive) | – |
| Cc1cccc(NC(=O)/C(=N\N)C(c2cnc3ccc([N+](=O)[O-])cc3n2)[N+](=O)[O-])c1C (configuration not stated) | > 100 µM (inactive) | > 100 µM (inactive) | 66.2 µM (inactive) | 41.8 µM (inactive) | > 100 µM (inactive) | > 100 µM (inactive) | > 100 µM (inactive) | > 100 µM (inactive) | > 100 µM (inactive) | > 100 µM (inactive) | > 100 µM (inactive) | – | > 100 µM (inactive) | > 100 µM (inactive) | > 100 µM (inactive) | > 100 µM (inactive) | > 100 µM (inactive) | > 100 µM (inactive) | > 100 µM (inactive) | > 100 µM (inactive) |
| C=C1[C@H](OC(C)=O)[C@H]2[C@@H](OC(C)=O)[C@@H](C)C[C@]2(C)C(=O)[C@H](C)/C=C/C(C)(C)C(=O)[C@H](OCC(C)C)[C@H]1OC(C)=O | > 25 µM (inactive) | > 25 µM (inactive) | > 25 µM (inactive) | > 25 µM (inactive) | > 25 µM (inactive) | > 25 µM (inactive) | – | > 25 µM (inactive) | – | 19.5 µM (inactive) | > 25 µM (inactive) | – | > 25 µM (inactive) | > 25 µM (inactive) | 7.57 µM (inactive) | > 25 µM (inactive) | > 25 µM (inactive) | > 25 µM (inactive) | 22.9 µM (inactive) | > 25 µM (inactive) |
| CC1=C2C(O)C(C(C)C(=O)NC(C)C)CCC2(C)C=CC1=O (configuration not stated) | – | – | > 100 µM (inactive) | > 100 µM (inactive) | > 100 µM (inactive) | > 100 µM (inactive) | > 100 µM (inactive) | > 100 µM (inactive) | > 100 µM (inactive) | > 100 µM (inactive) | – | > 100 µM (inactive) | > 100 µM (inactive) | > 100 µM (inactive) | > 100 µM (inactive) | > 100 µM (inactive) | > 100 µM (inactive) | > 100 µM (inactive) | > 100 µM (inactive) | > 100 µM (inactive) |
| Cc1ccc(N2C(=O)C3CSCN3C2=O)cc1 (configuration not stated) | – | – | > 100 µM (inactive) | > 100 µM (inactive) | > 100 µM (inactive) | > 100 µM (inactive) | > 100 µM (inactive) | > 100 µM (inactive) | > 100 µM (inactive) | > 100 µM (inactive) | – | > 100 µM (inactive) | > 100 µM (inactive) | 2.46 µM (inactive) | > 100 µM (inactive) | > 100 µM (inactive) | > 100 µM (inactive) | > 100 µM (inactive) | > 100 µM (inactive) | > 100 µM (inactive) |
| COc1ccc(/C(Cl)=C(\C=O)c2ccc(F)cc2)cc1OC | 16.8 µM (inactive) | 17.6 µM (inactive) | 14.5 µM (inactive) | – | 13.5 µM (inactive) | 16.4 µM (inactive) | 15.4 µM (inactive) | 37.4 µM (inactive) | – | 15.2 µM (inactive) | – | 16.8 µM (inactive) | 22.8 µM (inactive) | 15.4 µM (inactive) | 7.16 µM (inactive) | 14 µM (inactive) | 28.7 µM (inactive) | 16.6 µM (inactive) | 21.6 µM (inactive) | 6.32 µM (inactive) |
| COC(=O)c1cc(-c2cccn2C)c2c(c1C(=O)OC)c1ccccc1n2C | 17.9 µM (inactive) | 77.4 µM (inactive) | > 100 µM (inactive) | 53.7 µM (inactive) | – | > 100 µM (inactive) | 6.98 µM (inactive) | > 100 µM (inactive) | 31.8 µM (inactive) | – | 16.9 µM (inactive) | 13.5 µM (inactive) | 12.7 µM (inactive) | – | 37.5 µM (inactive) | – | 85.1 µM (inactive) | 85.7 µM (inactive) | 41.3 µM (inactive) | 50.5 µM (inactive) |
| CCOC(=O)C(C)NC(=O)NC12CC3CC(CC(F)(C3)C1)C2 (configuration not stated) | > 100 µM (inactive) | 63.8 µM (inactive) | > 100 µM (inactive) | > 100 µM (inactive) | – | 40.2 µM (inactive) | > 100 µM (inactive) | > 100 µM (inactive) | > 100 µM (inactive) | > 100 µM (inactive) | – | > 100 µM (inactive) | 42 µM (inactive) | > 100 µM (inactive) | 61.5 µM (inactive) | – | > 100 µM (inactive) | > 100 µM (inactive) | – | 11.5 µM (inactive) |
| CC(=O)OC1CCC2(C)C3CCC4(C)C(c5ccc(=O)oc5)CC5OC54C3CCC2(O)C1 (configuration not stated) | – | – | 2.69 µM (inactive) | 3.21 µM (inactive) | 0.621 µM (active) | 2.49 µM (inactive) | 2.19 µM (inactive) | 5.18 µM (inactive) | 0.495 µM (active) | 0.811 µM (active) | – | 0.979 µM (active) | 0.59 µM (active) | 0.706 µM (active) | 0.522 µM (active) | 4.72 µM (inactive) | 1.21 µM (inactive) | 0.649 µM (active) | 1.15 µM (inactive) | 2.45 µM (inactive) |
| N#CN=C(NCCO)NCCO | > 100 µM (inactive) | > 100 µM (inactive) | > 100 µM (inactive) | > 100 µM (inactive) | > 100 µM (inactive) | > 100 µM (inactive) | > 100 µM (inactive) | > 100 µM (inactive) | > 100 µM (inactive) | > 100 µM (inactive) | > 100 µM (inactive) | – | > 100 µM (inactive) | > 100 µM (inactive) | > 100 µM (inactive) | > 100 µM (inactive) | > 100 µM (inactive) | – | > 100 µM (inactive) | – |
| CON(C)c1nc(N(C)OC)nc(N(C)OC)n1 | > 10 µM (inactive) | > 10 µM (inactive) | > 10 µM (inactive) | > 10 µM (inactive) | > 10 µM (inactive) | > 10 µM (inactive) | > 10 µM (inactive) | > 10 µM (inactive) | > 10 µM (inactive) | > 10 µM (inactive) | > 10 µM (inactive) | > 10 µM (inactive) | > 10 µM (inactive) | > 10 µM (inactive) | > 10 µM (inactive) | > 10 µM (inactive) | > 10 µM (inactive) | > 10 µM (inactive) | > 10 µM (inactive) | – |
| CCN1CCC(O)(C(C(=O)O)c2ccccc2)CC1 (configuration not stated) | > 100 µM (inactive) | > 100 µM (inactive) | > 100 µM (inactive) | > 100 µM (inactive) | > 100 µM (inactive) | > 100 µM (inactive) | > 100 µM (inactive) | > 100 µM (inactive) | > 100 µM (inactive) | > 100 µM (inactive) | > 100 µM (inactive) | > 100 µM (inactive) | > 100 µM (inactive) | – | > 100 µM (inactive) | > 100 µM (inactive) | > 100 µM (inactive) | > 100 µM (inactive) | > 100 µM (inactive) | – |
| N#Cc1c(OCCF)c2ccccc2n2c1nc1ccccc12 | 23.3 µM (inactive) | > 100 µM (inactive) | 48.6 µM (inactive) | > 100 µM (inactive) | 27 µM (inactive) | 14.2 µM (inactive) | 64.3 µM (inactive) | 29.2 µM (inactive) | 31.6 µM (inactive) | 29.9 µM (inactive) | > 100 µM (inactive) | > 100 µM (inactive) | 67 µM (inactive) | 11.2 µM (inactive) | 97.7 µM (inactive) | 63.5 µM (inactive) | > 100 µM (inactive) | 69 µM (inactive) | 23.9 µM (inactive) | – |
